Experimental data: patent publication US10137110B2, “1-cyclohexyl-2-phenylaminobenzimidazoles as mIDH1 inhibitors for the treatment of tumors” (Bayer Pharma Aktiengesellschaft, priority 2014, dated 2018)

How the values were obtained:
IDH1 R132H enzyme = IDH1 R132H enzyme (Homo sapiens (Human), UniProt O75874, R132H); test: Mutant IDH1 R132H biochemical assay; details: NADPH consumption, luminescent readout; 1.5 nM enzyme, 250 μM α-KG, 1 μM NADPH, 30 minutes, 32° C.; test range 0.002-10 μM
Method: mIDH1 catalyzes the NADPH-dependent reduction of alpha-ketoglutarate (α-KG) to (2R)-2-hydroxyglutarate (2-HG). NADPH consumption was measured by luminescent readout.
The biochemical reactions were performed at 32° C. in 384-well plates using a reaction volume of 41 μl and the following assay buffer conditions: 50 mM Tris pH 7.5, 100 mM NaCl, 20 mM MgCl2, 0.05% BSA, 0.01% Brij, 1 μM NADPH, and 250 μM α-KG. […] Test compounds were used in a concentration range between 0.002 and 10 μM. The final DMSO concentration was 2.4%.
The reaction was incubated for 30 minutes, then 40 μl of detection mix (0.75 μg/ml Luciferase, 0.02 U/ml Oxidoreductase, 4 μg/ml FMN, 2 μl/ml Decanal/Ethanol, 50 mM Tris pH 7.5, 0.5% Glycerin, 0.01% Tween-20, 0.05% BSA) was added. Luminescence was measured on a luminescent reader (10 seconds measuring time, 1 second integration period, 30% sensitivity). The decrease in luminescence is proportional to mIDH1 activity. IC50 values are determined by interpolation from plots of relative luminescence versus inhibitor concentration.

[1] = target: mutated isocitrate dehydrogenase (mIDH) protein overexpressed in LN229 R132H cells (Homo sapiens (Human), UniProt O75874, R132H); test: Mutant IDH1 cellular assay (2-HG in medium of LN229 R132H cells); type: cell-based; details: 24 hours, fluorescence readout
Method: Mutant IDH1 Cellular Assay
Levels of (2R)-2-hydroxyglutarate (2HG) were measured in medium of a cell line with overexpression of mutated isocitrate dehydrogenase (mIDH) protein. mIDH catalyzes the NADPH-dependent reduction of alpha-ketoglutarate to 2-HG. Cells (LN229 R132H, Mohrenz et al., Apoptosis (2013) 18:1416-1425) were grown in DMEM containing 10% FCS. They were harvested by trypsin and seeded into 96-well plates. Cells were incubated overnight at 37° C. in 5% CO2. The next day test compounds were added to each cell well. The final concentration of DMSO was 0.1% and DMSO controls were included. The plates were then placed in an incubator for 24 hours.
2-HG was measured according to Balss et al. (Acta Neuropathol (2012) 124: 883-891). Briefly, HClO4 was added to each well and the plates were centrifuged. Aliquots are removed and incubated with hydroxyglutarate dehydrogenase (HGDH), diaphorase, NAD+, and resazurin. The conversion of resazurin to resorufin was detected by fluorescence spectroscopy at Ex 540 nm Em 600 nm. The increase in fluorescence is proportional to 2-HG production. IC50 values are determined by interpolation from plots of relative fluorescence vs inhibitor concentration.

Sequence of IDH1 R132H enzyme (O75874 whole entry R132H): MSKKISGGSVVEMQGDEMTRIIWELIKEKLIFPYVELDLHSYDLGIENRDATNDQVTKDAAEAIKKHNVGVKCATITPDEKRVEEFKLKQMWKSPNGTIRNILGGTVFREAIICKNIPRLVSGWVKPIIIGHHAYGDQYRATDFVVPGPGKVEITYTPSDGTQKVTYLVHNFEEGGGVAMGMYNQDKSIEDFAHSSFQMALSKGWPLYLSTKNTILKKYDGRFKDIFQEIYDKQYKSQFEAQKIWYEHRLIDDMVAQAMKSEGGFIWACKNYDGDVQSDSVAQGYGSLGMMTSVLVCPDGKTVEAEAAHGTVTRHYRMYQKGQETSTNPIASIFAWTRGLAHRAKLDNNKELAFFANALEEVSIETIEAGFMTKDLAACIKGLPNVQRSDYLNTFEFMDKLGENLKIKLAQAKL
Sequence of mutated isocitrate dehydrogenase (mIDH) protein overexpressed in LN229 R132H cells (O75874 whole entry R132H): as above

IC50 (IDH1 R132H enzyme) [nM]	IC50 [1] [nM]	Structure (SMILES)
90	4000	Cc1n[nH]c(C)c1-c1ccc2c(c1)nc(Nc1ccc(OC(F)(F)F)cc1)n2[C@@H]1C[C@H](C)CC(C)(C)C1 (stereo in doubt) [Example 2-5]
14	22	Cc1cc2c(cc1C1OC(=O)NC1=O)nc(Nc1ccc(OC(F)(F)F)cc1)n2C1CC(C)(C)CC(C)(C)C1 (centres unmarked) [Example 2-36, 5-[6-methyl-1-(3,3,5,5-tetramethylcyclohexyl)-2-{[4-(trifluoromethoxy)phenyl]amino}-1H-benzimidazol-5-yl]-1,3-oxazolidine-2,4-dione]
30	250	Cc1cc2c(cc1-c1cc(O)no1)nc(Nc1ccc(OC(F)(F)F)cc1)n2C1CC(C)(C)CC(C)(C)C1 [Example 2-37, 5-[6-methyl-1-(3,3,5,5-tetramethylcyclohexyl)-2-{[4-(trifluoromethoxy)phenyl]amino}-1H-benzimidazol-5-yl]-1,2-oxazol-3-ol]
100	8000	Cc1cc(-c2ccc3c(c2)nc(Nc2ccc(OC(F)(F)F)cc2)n3[C@@H]2C[C@H](C)CC(C)(C)C2)n(C)n1 (stereo in doubt) [Example 2-12]
70	200	CC1(C)CC(n2c(Nc3ccc(OC(F)(F)F)cc3)nc3cc(-c4nnn[nH]4)ccc32)CC(C)(C)C1 [Example 2-28, 1-(3,3,5,5-tetramethylcyclohexyl)-5-(1H-tetrazol-5-yl)-N-[4-(trifluoromethoxy)-phenyl]-1H-benzimidazol-2-amine]
1540	1500	Cc1n[nH]c(C)c1-c1ccc2c(c1)nc(Nc1ccc(OC(F)(F)F)cc1)n2[C@H]1C[C@@H](C)CC(C)(C)C1 (stereo in doubt) [Example 2-5-2]
80	600	C[C@H]1C[C@@H](n2c(Nc3ccc(OC(F)(F)F)cc3)nc3cc(-c4cn[nH]c4)ccc32)CC(C)(C)C1 (stereo in doubt) [Example 2-4]
120	1500	Cc1nnc(-c2cc3nc(Nc4ccc(OC(F)(F)F)cc4)n(C4CC(C)(C)CC(C)(C)C4)c3cc2C)[nH]1 [Example 2-30, 6-methyl-5-(5-methyl-4H-1,2,4-triazol-3-yl)-1-(3,3,5,5-tetramethylcyclohexyl)-N-[4-(trifluoromethoxy)phenyl]-1H-benzimidazol-2-amine]
300	10000	Cc1n[nH]c(C)c1-c1ccc2c(c1)nc(Nc1ccc(SC(F)(F)F)cc1)n2[C@@H]1C[C@H](C)CC(C)(C)C1 (stereo in doubt) [Example 2-10-1]
220	10000	Cc1nc(-c2ccc3c(c2)nc(Nc2ccc(OC(F)(F)F)cc2)n3C2CC(C)(C)CC(C)(C)C2)no1 [Example 2-26, 5-(5-Methyl-1,2,4-oxadiazol-3-yl)-1-(3,3,5,5-tetramethylcyclohexyl)-N-[4-(trifluoromethoxy)phenyl]-1H-benzimidazol-2-amine]
140	2000	Cc1n[nH]c(C)c1-c1ccc2c(c1)nc(Nc1ccc(SC(F)(F)F)cc1)n2[C@@H]1C[C@H](C)CC(C)(C)C1 (stereo in doubt) [Example 2-10]
210	2800	C[C@H]1C[C@@H](n2c(Nc3ccc(OC(F)(F)F)cc3)nc3cc(-c4cccc(C(N)=O)c4)ccc32)CC(C)(C)C1 (stereo in doubt) [Example 2-11]
70	360	C[C@@H]1C[C@H](n2c(Nc3ccc(OC(F)(F)F)cc3)nc3cc(-c4cccc(C(=O)O)c4)ccc32)CC(C)(C)C1 (racemic) [Example 2-2, (±) 3-(2-{[4-(trifluoromethoxy)phenyl]amino}-1-[(cis)-3,3,5-trimethylcyclohexyl]-1H-benzimidazol-5-yl)benzoic acid]

Structure (SMILES)	IC50 (IDH1 R132H enzyme) [nM]	IC50 [1] [nM]
Cc1noc(C)c1-c1ccc2c(c1)nc(Nc1ccc(SC(F)(F)F)cc1)n2[C@H]1C[C@@H](C)CC(C)(C)C1 (stereo in doubt) [Example 2-21-2]	290	2500
Cc1noc(C)c1-c1ccc2c(c1)nc(Nc1ccc(C(F)(F)F)cc1)n2[C@H]1C[C@@H](C)CC(C)(C)C1 (stereo in doubt) [Example 2-23-2]	180	10000
Cc1noc(C)c1-c1ccc2c(c1)nc(Nc1ccc(SC(F)(F)F)cc1)n2[C@@H]1C[C@H](C)CC(C)(C)C1 (stereo in doubt) [Example 2-21-1]	1100	10000
